Experiments:
[1] = system: 60 tumor cell lines; assay: NCI DTP Human Tumor Cell Line Screen (60 tumor cell lines, Sulforhodamine B assay); type: cell-based; conditions: 48 h exposure, five 10-fold dilutions
Description: This example describes the in vitro screening of 60 tumor cell lines against the compounds of the invention: ptilomycalin A, isocrambescidin 800 trihydrochloride, triacetylcrambescidin 800 chloride, crambescidin 657 hydrochloride, crambescidin 800 trihydrochloride, triacetylisocrambescidin 800 chloride, and 13-epiptilomycalin A to determine anti-tumor activity.
The screening methods utilized the National Cancer Institute (NCI) DTP Human Tumor Cell Line Screen protocol as described by Monks et al., J. Nat'l. Cancer Inst. 83:757-766 (1991); and Boyd In “Cancer Drug Discovery and Development, Vol; 2; Drug Development; Preclinical Screening, Clinical Trial and Approval, Humana Press, 1997, pp 23-43. The origins and processing of the cell lines used are described in Alley et al., Cancer Res., 1988, 48:589-601; Shoemaker et al., Prog. Clin. Biol. Res., 1988, 276:265-286; and Stinson et al., Proc. Am. Assoc. Cancer Res., 1989, 30:613.
In brief, in the screen protocol, cell suspensions were diluted depending on cell type and the expected target cell density (approximately 5000-40,000 cells per well) into a 96 well microtiter plate. Inoculates were preincubated for 24h at 37 °C for stabilization. Dilutions at twice the intended test concentrations were added at time zero in 100 μL aliquots to the microtiter plate wells. Test compounds were evaluated at five 10-fold dilutions. Routine test concentrations have the highest well concentration at 10E-4M, but for the standard agents, the highest well concentration used depended on the agent used. Incubations lasted 48 hours in 5% CO2 atmosphere and 100% humidity. The cells were assayed by Sulforhodomine B assay as described by Rubenstein et al., JNCI, 1990, 82:1113-1118 and Skehan et al., JNCI, 1990, 82: 1107-1112. Optical densities were read with a plate reader and the data processed using a microcomputer into special concentration parameters.
NCI renamed the IC50 value, the concentration that causes 50% growth inhibition the “GI50” value to emphasize the correction for the cell count at time zero; thus GI50 is the concentration of test drug where 100×(T−T0)/(C−T0)=50 (Boyd et al., In Cytotoxic Anticancer Drugs: Models and Concepts for Drug Discovery and Development, Vieriote. et al., Eds., Kluwer Academic, Hingham, Mass., 1992, pp 11-34; and Monks et al., JNCI, 1991, 83, 757-766. The optical density of the test well after a 48 hr period of exposure to the test compound is “T”, the optical density at time zero is TO and the control optical density is “C.” The “50” is called the GI50PRCNT, a T/C-like parameter that can have values from +100 to −100. The GI50 also measures the growth inhibitory power of the test compound. The TGI is the concentration of test drug where 100×(T−T0)/(C−T0)=0. Thus, the TGI signifies a cytostatic effect. The LC50 which signifies a cytotoxic effect, is the concentration of the test compound where 100×(T−T0)/T0=−50. The control optical density is not used in the calculation of LC50.
These concentration parameters are interpolated values. The concentrations giving G150PRCNT values above and below the reference values (e.g. 50 for G150) are used to make interpolations on the concentration axis. […] For mean graph purposes, the value assumed for the G150 in such a case is the highest concentration tested (HICONC). […] In this case, the lowest concentration tested is used for the G150. Corresponding approximations are made for the TGI and for the LC50.
The results of the tumor cell screening are shown in the mean graphs of 56-62. […]

[2] = system: L1210; conditions: cited from earlier work
[3] = system: P388; conditions: cited from earlier work
[4] = system: Candida albicans; conditions: cited from earlier work
[5] = system: Herpes simplex virus, type 1 (HSV-1); conditions: at a concentration of 0.2 μg/mL; cited from earlier work
[6] = biological target: brain Na+, K+-ATPase; conditions: read-out: inhibition of brain Na+, K+-ATPase (IC50); cited from earlier work
[7] = biological target: T1, Ca2+-ATPase from skeletal sarcoplasmic reticulum (Homo sapiens, UniProt O14983); conditions: read-out: inhibition of Ca2+-ATPase from skeletal sarcoplasmic reticulum (IC50); cited from earlier work
T1 construct: from tissue; host or cells: skeletal muscle sarcoplasmic reticulum
T1 sequence (O14983 whole entry): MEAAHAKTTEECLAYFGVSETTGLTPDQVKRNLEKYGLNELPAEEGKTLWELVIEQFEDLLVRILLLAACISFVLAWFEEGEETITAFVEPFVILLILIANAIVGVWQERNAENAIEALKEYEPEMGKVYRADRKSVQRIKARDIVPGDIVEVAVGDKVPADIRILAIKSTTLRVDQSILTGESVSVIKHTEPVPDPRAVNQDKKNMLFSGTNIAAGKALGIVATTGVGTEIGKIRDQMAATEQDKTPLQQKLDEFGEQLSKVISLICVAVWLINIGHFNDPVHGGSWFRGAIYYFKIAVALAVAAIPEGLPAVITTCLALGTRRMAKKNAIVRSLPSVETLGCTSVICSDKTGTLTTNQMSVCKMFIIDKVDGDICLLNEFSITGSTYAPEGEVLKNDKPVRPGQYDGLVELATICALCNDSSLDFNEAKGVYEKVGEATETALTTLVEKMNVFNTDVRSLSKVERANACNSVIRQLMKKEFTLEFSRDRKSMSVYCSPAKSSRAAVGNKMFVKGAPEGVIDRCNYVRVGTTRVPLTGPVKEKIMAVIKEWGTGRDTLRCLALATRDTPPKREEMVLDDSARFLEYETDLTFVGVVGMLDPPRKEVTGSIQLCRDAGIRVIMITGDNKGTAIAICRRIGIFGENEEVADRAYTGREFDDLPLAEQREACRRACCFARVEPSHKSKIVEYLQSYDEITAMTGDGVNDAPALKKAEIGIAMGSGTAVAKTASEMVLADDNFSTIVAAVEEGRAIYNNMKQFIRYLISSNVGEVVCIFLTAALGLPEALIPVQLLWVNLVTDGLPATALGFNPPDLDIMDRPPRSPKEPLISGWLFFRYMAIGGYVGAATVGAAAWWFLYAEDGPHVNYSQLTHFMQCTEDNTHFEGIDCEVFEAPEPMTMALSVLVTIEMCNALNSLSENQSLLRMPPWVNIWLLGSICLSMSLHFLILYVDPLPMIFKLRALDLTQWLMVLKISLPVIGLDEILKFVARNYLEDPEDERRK

## 13,14,15-Isocrambescidin 800 Trihydrochloride
[1]
  effect on tumor cell lines in the NCI screen (mean graphs of GI50, TGI, LC50; summary in words): lesser effect
[2]; L-1210 cells, in words
  cytotoxicity to L-1210 cells relative to other crambescidins: less cytotoxic to L-1210 cells than other crambescidins

## 13-epiptilomycalin A
[1]
  effect on tumor cell lines in the NCI screen (mean graphs of GI50, TGI, LC50; summary in words): certain cancer cell lines are sensitive

## CCC1C=CCCC2(CC3CCC4C(C(=O)OCCCCCCCCCCCCCCCC(=O)N(CCCN)CCCCN)C5(CCCC(C)O5)NC(=N2)N34)O1 (centres unmarked) [Ptilomycalin A]
[1]
  effect on tumor cell lines in the NCI screen (mean graphs of GI50, TGI, LC50; summary in words): certain cancer cell lines are sensitive
[3]
  cytotoxicity against P388 (IC50): 0.1 µg/mL
[2]; L1210
  cytotoxicity against L1210 (IC50): 0.4 µg/mL
[4]
  antifungal activity against Candida albicans (MIC): 0.8 µg/mL
[5]
  antiviral activity against Herpes simplex virus, type 1 (HSV-1): considerable antiviral activity
[6]
  IC50: 2 µM
[7]
  IC50: 10 µM

## CC[C@H]1C=CCC[C@@]2(C[C@@H]3CC[C@@H]4[C@H](C(=O)OCCCCCCCCCCCCCCCC(=O)N(CCCN)C[C@@H](O)CCN)[C@]5(CCC[C@@H](C)O5)NC(=N2)N34)O1.Cl.Cl.Cl [crambescidin 800 trihydrochloride, Crambescidin 800 Trihydrochloride]
[1]
  effect on tumor cell lines in the NCI screen (mean graphs of GI50, TGI, LC50; summary in words): certain cancer cell lines are sensitive

## Peracetyl-13,14,15-Isocrambescidin 800 Hydrochloride [triacetylisocrambescidin 800 chloride]
[1]
  effect on tumor cell lines in the NCI screen (mean graphs of GI50, TGI, LC50; summary in words): lesser effect

## Peracetylcrambescidin 800 [triacetylcrambescidin 800 chloride]
[1]
  effect on tumor cell lines in the NCI screen (mean graphs of GI50, TGI, LC50; summary in words): certain cancer cell lines are sensitive

## crambescidin 657 hydrochloride
[1]
  effect on tumor cell lines in the NCI screen (mean graphs of GI50, TGI, LC50; summary in words): certain cancer cell lines are sensitive

Source: patent US20050239804A1, “Method for improved chemical synthesis of guanidinium alkaloids” (The Regents of the University of California, priority 1999, published 2005)
